Assay results published in publication PMC3726442 (PLoS ONE, 2013).

What was measured:
[1] = tested on: CYP3A4/5; set-up: method as in PMID 19088019; conditions: major primary metabolite, CYP3A4/5-mediated; cited from earlier work
[2] = Plasma concentrations of tamoxifen and its metabolites in breast cancer patients on tamoxifen, by HPLC-tandem mass spectrometry
[3] = all samples analyzed, n = 125, before daily 20 mg TAM dose

CC/C(=C(\c1ccccc1)c1ccc(OCCNC)cc1)c1ccccc1 [N-desmethyl-tamoxifen]
share of primary TAM oxidation [1]: 90% | mean plasma concentration (±SD) [2, 3]: 450.54 ± 188.79 ng/mL | median plasma concentration [2, 3]: 418.46 ng/mL | mean concentration relative to the TAM concentration ([2]; all samples, n = 125): over 2 times | plasma concentration, mean ±SD ([2]; genotype SULT1A1 *2/*2, n = 15): 459.42 ± 160.94 ng/mL | plasma concentration, median ([2]; genotype SULT1A1 *2/*2, n = 15): 432.49 ng/mL | plasma concentration, range ([2]; genotype SULT1A1 *2/*2, n = 15): (212.67–782.92) ng/mL | plasma concentration, mean ±SD ([2]; genotype SULT1A1 wt/*2, n = 46): 441.63 ± 176.28 ng/mL | plasma concentration, median ([2]; genotype SULT1A1 wt/*2, n = 46): 418.46 ng/mL | plasma concentration, range ([2]; genotype SULT1A1 wt/*2, n = 46): (196.74–1191.13) ng/mL | plasma concentration, mean ±SD ([2]; genotype SULT1A1 wt/wt, n = 60): 458.09 ± 209.96 ng/mL | plasma concentration, median ([2]; genotype SULT1A1 wt/wt, n = 60): 411.53 ng/mL | plasma concentration, range ([2]; genotype SULT1A1 wt/wt, n = 60): (35.96–1210.09) ng/mL | plasma concentration, mean ±SD ([2]; genotype SULT1A2 *2/*2, n = 16): 453.17 ± 128.87 ng/mL | plasma concentration, median ([2]; genotype SULT1A2 *2/*2, n = 16): 427.03 ng/mL | plasma concentration, range ([2]; genotype SULT1A2 *2/*2, n = 16): (238.36–782.92) ng/mL | plasma concentration, mean ±SD ([2]; genotype SULT1A2 *2/*3, n = 13): 478.66 ± 162.35 ng/mL | plasma concentration, median ([2]; genotype SULT1A2 *2/*3, n = 13): 527.52 ng/mL | plasma concentration, range ([2]; genotype SULT1A2 *2/*3, n = 13): (228.81–676.02) ng/mL | plasma concentration, mean ±SD ([2]; genotype SULT1A2 *3/*3, n = 5): 478.49 ± 198.83 ng/mL | plasma concentration, median ([2]; genotype SULT1A2 *3/*3, n = 5): 485.02 ng/mL | plasma concentration, range ([2]; genotype SULT1A2 *3/*3, n = 5): (242.88–768.62) ng/mL | plasma concentration, mean ±SD ([2]; genotype SULT1A2 wt/*2, n = 33): 478.01 ± 247.44 ng/mL | plasma concentration, median ([2]; genotype SULT1A2 wt/*2, n = 33): 399.40 ng/mL | plasma concentration, range ([2]; genotype SULT1A2 wt/*2, n = 33): (212.67–1210.09) ng/mL | plasma concentration, mean ±SD ([2]; genotype SULT1A2 wt/*3, n = 16): 425.36 ± 207.64 ng/mL | plasma concentration, median ([2]; genotype SULT1A2 wt/*3, n = 16): 324.21 ng/mL | plasma concentration, range ([2]; genotype SULT1A2 wt/*3, n = 16): (167.40–952.85) ng/mL | plasma concentration, mean ±SD ([2]; genotype SULT1A2 wt/wt, n = 38): 428.02 ± 162.17 ng/mL | plasma concentration, median ([2]; genotype SULT1A2 wt/wt, n = 38): 413.16 ng/mL | plasma concentration, range ([2]; genotype SULT1A2 wt/wt, n = 38): (35.96–847.98) ng/mL | plasma concentration, mean ±SD ([2]; genotype SULT1E1 *2/*2, n = 5): 455.57 ± 104.52 ng/mL | plasma concentration, median ([2]; genotype SULT1E1 *2/*2, n = 5): 497.51 ng/mL | plasma concentration, range ([2]; genotype SULT1E1 *2/*2, n = 5): (311.12–550.12) ng/mL | plasma concentration, mean ±SD ([2]; genotype SULT1E1 wt/*2, n = 28): 462.59 ± 167.53 ng/mL | plasma concentration, median ([2]; genotype SULT1E1 wt/*2, n = 28): 426.41 ng/mL | plasma concentration, range ([2]; genotype SULT1E1 wt/*2, n = 28): (196.74–768.62) ng/mL | plasma concentration, mean ±SD ([2]; genotype SULT1E1 wt/wt, n = 88): 448.30 ± 202.82 ng/mL | plasma concentration, median ([2]; genotype SULT1E1 wt/wt, n = 88): 399.40 ng/mL
